# Laboratory results reported in article PMC4459817, “Vasculotide reduces endothelial permeability and tumor cell extravasation in the absence of binding to or agonistic activation of Tie2” (EMBO Molecular Medicine, 2015).
# T1: human Tie2-Fc (Fc-conjugated extracellular domain of Tie2) (human, UniProt Q02763 23-748)
# T1 chain: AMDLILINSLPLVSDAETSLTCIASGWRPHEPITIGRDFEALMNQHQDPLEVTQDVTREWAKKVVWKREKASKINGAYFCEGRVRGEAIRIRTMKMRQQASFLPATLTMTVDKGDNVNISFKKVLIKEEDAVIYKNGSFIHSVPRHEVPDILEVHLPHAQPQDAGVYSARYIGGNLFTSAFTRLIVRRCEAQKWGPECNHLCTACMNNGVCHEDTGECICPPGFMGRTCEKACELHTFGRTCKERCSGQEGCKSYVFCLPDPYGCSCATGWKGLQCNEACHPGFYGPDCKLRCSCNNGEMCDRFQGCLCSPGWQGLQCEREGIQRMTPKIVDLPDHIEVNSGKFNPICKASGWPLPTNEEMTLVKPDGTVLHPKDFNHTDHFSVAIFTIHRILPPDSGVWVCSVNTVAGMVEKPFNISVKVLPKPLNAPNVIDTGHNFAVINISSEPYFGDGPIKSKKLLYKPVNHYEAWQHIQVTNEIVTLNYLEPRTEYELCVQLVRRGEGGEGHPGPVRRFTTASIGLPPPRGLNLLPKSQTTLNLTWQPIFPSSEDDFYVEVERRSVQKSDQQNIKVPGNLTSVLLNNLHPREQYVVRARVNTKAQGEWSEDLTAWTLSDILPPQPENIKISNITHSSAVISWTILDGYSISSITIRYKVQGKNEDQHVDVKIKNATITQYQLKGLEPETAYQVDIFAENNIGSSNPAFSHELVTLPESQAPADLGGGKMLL
# How the values were obtained:
# [1] = tested on: pancreatic neuroendocrine tumors; settings: ref Paez-Ribes et al, 2009; cited from earlier work
# Source text: There are at least two plausible explanations for this differential impact of SU on hematogenous metastasis (to lung/liver) vs. lymphogenous metastasis (to LNs). Paez-Ribes et al ...
# [2] = tested on: SN12luc lung metastases in YFP-SCID mice; test: experimental SN12luc lung metastasis model (IV); format: in vivo, human SN12luc cells in YFP-SCID mice; settings: VT 250 ng/2 days or 400 ng/2 days; Fig3E–G; 50DPI imaging
# Source text: Figure 3 Vasculotide has no effect on experimental liver metastases from a colon cancer cell line (HT29^luc), nor on experimental lung metastases from a renal cancer cell line (SN12^luc) • A–D An experiment where HT29^luc tumor cells were implanted intravenously into YFP-SCID mice. (A) Kaplan–Meier survival analysis. (B) Quantification of total metastatic burden in the liver and lymphatics, at 35 days post-implantation (DPI), from whole-body bioluminescent imaging (C). (D) Photograph of typical liver metastases. • E–G An experiment where SN12^luc tumor cells were implanted intravenously into YFP-SCID mice. (E) Kaplan–Meier survival analysis. (F) Quantification of total metastatic burden at 50DPI, mostly within the lungs, from whole-body bioluminescent imaging (G). […]
# For in vivo BI: Mice were injected intraperitoneally with 150mg/kg luciferin (Promega) 10 minutes prior to and anesthetized with isofluorane just before luminescent pseudocolor imaging (uniform settings: CCD camera locked at -105 °C, exposure=60s, f/1, subject size=1.5cm, bin=8, FOV=23.2cm, full image correction) using the IVIS 200 Imaging System (Caliper/PerkinElmer). Using the Living Image software (v2.50.1, Xenogen), weekly images were analyzed under uniform color range on grayscale photographic overlay. […]
# [3] = molecular target: T1, human Tie2-Fc (Fc-conjugated …); test: SPR
molecule,measurement,setting,value
"CCN(CC)CCNC(=O)c1c(C)[nH]c(/C=C2\C(=O)Nc3ccc(F)cc32)c1C [sunitinib, reference compound]",metastasis to the liver but not the lymph nodes,[1],increased metastasis to the liver but not the lymph nodes
"CHHHRHSF [Vasculotide, 4-armed maleimide-functionalized polyethylene glycol (PEG) backbone to link together four cysteine-capped T7 peptides, that is, CHHHRHSF]",lung metastases response,[2],did not respond to VT treatment
"recombinant human Ang1 (rhAng1) (ligand, UniProt Q15389 16-498, looked up, angiopoietin-1, human, recombinant; also called angiopoietin-1; source: bought: R&D Systems (named for the Boyden chamber experiments)) HIGCSNQRRSPENSGRRYNRIQHGQCAYTFILPEHDGNCRESTTDQYNTNALQRDAPHVEPDFSSQKLQHLEHVMENYTQWLQKLENYIVENMKSEMAQIQQNAVQNHTATMLEIGTSLLSQTAEQTRKLTDVETQVLNQTSRLEIQLLENSLSTYKLEKQLLQQTNEILKIHEKNSLLEHKILEMEGKHKEELDTLKEEKENLQGLVTRQTYIIQELEKQLNRATTNNSVLQKQQLELMDTVHNLVNLCTKEGVLLKGGKREEEKPFRDCADVYQAGFNKSGIYTIYINNMPEPKKVFCNMDVNGGGWTVIQHREDGSLDFQRGWKEYKMGFGNPSGEYWLGNEFIFAITSQRQYMLRIELMDWEGNRAYSQYDRFHIGNEKQNYRLYLKGHTGTAGKQSSLILHGADFSTKDADNDNCMCKCALMLTGGWWFDACGPSNLNGMFYTAGQNHGKLNGIKWHYFKGPSYSLRSTTMMIRPLDF",koff,[3],0.00029 s⁻¹
